Measured values from ChEMBL document CHEMBL1201862, “PubChem BioAssay data set” (2004).
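48-hour exposure; five concentrations; linearly interpolated endpoints. GI50 marks 50% less growth.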 Activity calls are given as the source filed them. No stated cut-off is given here; in the data, active = GI50 up to about 1.1 µM and inactive = higher.

Legend:
Experiment in all cases: NCI tumour cell line growth inhibition, 48 h
SK-MEL-28 = system: SK-MEL-28
TK-10 = system: TK-10
NCI-H522 = system: NCI-H522
UACC-62 = system: UACC-62
SNB-75 = system: SNB-75
MDA-N = system: MDA-N
DU-145 = system: DU-145
MOLT-4 = system: MOLT-4
Hs-578T = system: Hs-578T
EKVX = system: EKVX
LOX IMVI = system: LOX IMVI
SF-539 = system: SF-539
UACC-257 = system: UACC-257
MDA-MB-231 = system: MDA-MB-231
HCT-116 = system: HCT-116
HCC 2998 = system: HCC 2998
BT-549 = system: BT-549
RPMI-8226 = system: RPMI-8226
SF-268 = system: SF-268
CCRF-CEM = system: CCRF-CEM
T47D = system: T47D
SN12C = system: SN12C
U-251 = system: U-251
MCF7 = system: MCF7
HOP-62 = system: HOP-62
NCI-H460 = system: NCI-H460
UO-31 = system: UO-31
NCI-H23 = system: NCI-H23
ACHN = system: ACHN
HL-60 = system: HL-60
SK-MEL-2 = system: SK-MEL-2
KM12 = system: KM12
Malme-3M = system: Malme-3M
NCI-H226 = system: NCI-H226
OVCAR-3 = system: OVCAR-3
K562 = system: K562
M14 = system: M14
SNB-19 = system: SNB-19
MDA-MB-435 = system: MDA-MB-435
SK-OV-3 = system: SK-OV-3
OVCAR-5 = system: OVCAR-5
A498 = system: A498
HCT-15 = system: HCT-15
SR = system: SR
HT-29 = system: HT-29
RXF 393 = system: RXF 393
HOP-92 = system: HOP-92
A549 = system: A549
SF-295 = system: SF-295
786-0 = system: 786-0
COLO 205 = system: COLO 205
IGROV-1 = system: IGROV-1
PC-3 = system: PC-3
CAKI-1 = system: CAKI-1
OVCAR-8 = system: OVCAR-8
SK-MEL-5 = system: SK-MEL-5
OVCAR-4 = system: OVCAR-4
SW-620 = system: SW-620

Question: `CC1CN=C(NCc2ccccc2)S1` (configuration not stated) was tested. Which GI50 (SK-MEL-28) did it give?
Answer: > 100 µM (inactive)

Question: And the GI50 (TK-10)?
Answer: > 100 µM (inactive)

Question: And the GI50 (NCI-H522)?
Answer: > 100 µM (inactive)

Question: What about the GI50 (UACC-62) of the same molecule?
Answer: > 100 µM (inactive)

Question: What about the GI50 (SNB-75) of the same molecule?
Answer: > 100 µM (inactive)

Question: What about the GI50 (MDA-N) of the same molecule?
Answer: 28.4 µM (inactive)

Question: What about the GI50 (DU-145) of the same molecule?
Answer: > 100 µM (inactive)

Question: And the GI50 (MOLT-4)?
Answer: > 100 µM (inactive)

Question: And the GI50 (Hs-578T)?
Answer: > 100 µM (inactive)

Question: And the GI50 (EKVX)?
Answer: > 100 µM (inactive)

Question: And the GI50 (LOX IMVI)?
Answer: > 100 µM (inactive)

Question: What about the GI50 (SF-539) of the same molecule?
Answer: > 100 µM (inactive)

Question: What about the GI50 (UACC-257) of the same molecule?
Answer: > 100 µM (inactive)

Question: And the GI50 (MDA-MB-231)?
Answer: > 100 µM (inactive)

Question: What about the GI50 (HCT-116) of the same molecule?
Answer: > 100 µM (inactive)

Question: And the GI50 (HCC 2998)?
Answer: > 100 µM (inactive)

Question: And the GI50 (BT-549)?
Answer: > 100 µM (inactive)

Question: And the GI50 (RPMI-8226)?
Answer: > 100 µM (inactive)

Question: And the GI50 (SF-268)?
Answer: > 100 µM (inactive)

Question: What about the GI50 (CCRF-CEM) of the same molecule?
Answer: > 100 µM (inactive)

Question: And the GI50 (T47D)?
Answer: > 100 µM (inactive)

Question: And the GI50 (SN12C)?
Answer: > 100 µM (inactive)

Question: What about the GI50 (U-251) of the same molecule?
Answer: > 100 µM (inactive)

Question: What about the GI50 (MCF7) of the same molecule?
Answer: > 100 µM (inactive)

Question: And the GI50 (HOP-62)?
Answer: > 100 µM (inactive)

Question: What about the GI50 (NCI-H460) of the same molecule?
Answer: > 100 µM (inactive)

Question: And the GI50 (UO-31)?
Answer: > 100 µM (inactive)

Question: What about the GI50 (NCI-H23) of the same molecule?
Answer: > 100 µM (inactive)

Question: What about the GI50 (ACHN) of the same molecule?
Answer: > 100 µM (inactive)

Question: And the GI50 (HL-60)?
Answer: 65 µM (inactive)

Question: What about the GI50 (SK-MEL-2) of the same molecule?
Answer: > 100 µM (inactive)

Question: And the GI50 (KM12)?
Answer: > 100 µM (inactive)

Question: What about the GI50 (Malme-3M) of the same molecule?
Answer: > 100 µM (inactive)

Question: What about the GI50 (NCI-H226) of the same molecule?
Answer: 86.7 µM (inactive)

Question: And the GI50 (OVCAR-3)?
Answer: > 100 µM (inactive)

Question: What about the GI50 (K562) of the same molecule?
Answer: 48.2 µM (inactive)

Question: What about the GI50 (M14) of the same molecule?
Answer: > 100 µM (inactive)

Question: What about the GI50 (SNB-19) of the same molecule?
Answer: > 100 µM (inactive)

Question: And the GI50 (MDA-MB-435)?
Answer: 39.1 µM (inactive)

Question: And the GI50 (SK-OV-3)?
Answer: > 100 µM (inactive)

Question: What about the GI50 (OVCAR-5) of the same molecule?
Answer: > 100 µM (inactive)

Question: And the GI50 (A498)?
Answer: > 100 µM (inactive)

Question: And the GI50 (HCT-15)?
Answer: > 100 µM

Question: What about the GI50 (SR) of the same molecule?
Answer: 29 µM (inactive)

Question: What about the GI50 (HT-29) of the same molecule?
Answer: > 100 µM (inactive)

Question: What about the GI50 (RXF 393) of the same molecule?
Answer: 4.17 µM (inactive)

Question: Which results are given for `CC1(C)CC2=NO[Se]3=C2C(=NO3)C1`?
Answer: GI50 (HOP-92): 2.63 µM (inactive); GI50 (SK-MEL-28): 4.54 µM (inactive); GI50 (TK-10): 4.29 µM (inactive); GI50 (NCI-H522): 1.9 µM (inactive); GI50 (UACC-62): 2.27 µM (inactive); GI50 (SNB-75): 2.68 µM (inactive); GI50 (A549): 3.42 µM (inactive); GI50 (MDA-N): 1.95 µM (inactive); GI50 (DU-145): 3.83 µM (inactive); GI50 (MOLT-4): 3.48 µM (inactive); GI50 (Hs-578T): 4.35 µM (inactive); GI50 (SF-295): 2.36 µM (inactive); GI50 (786-0): 1.94 µM (inactive); GI50 (EKVX): 2.8 µM (inactive); GI50 (LOX IMVI): 1.6 µM (inactive); GI50 (SF-539): 2.15 µM (inactive); GI50 (UACC-257): 2.17 µM (inactive); GI50 (MDA-MB-231): 4.19 µM (inactive); GI50 (COLO 205): 2.07 µM (inactive); GI50 (HCT-116): 0.485 µM (active); GI50 (IGROV-1): 2.72 µM (inactive); GI50 (HCC 2998): 5.19 µM (inactive); GI50 (BT-549): 1.47 µM (inactive); GI50 (RPMI-8226): 3.14 µM (inactive); GI50 (SF-268): 5.3 µM (inactive); GI50 (CCRF-CEM): 3.06 µM (inactive); GI50 (T47D): 6.07 µM (inactive); GI50 (SN12C): 4.43 µM (inactive); GI50 (U-251): 3.69 µM (inactive); GI50 (MCF7): 3.27 µM (inactive); GI50 (PC-3): 0.394 µM (active); GI50 (HOP-62): 2.99 µM (inactive); GI50 (NCI-H460): 1.34 µM (inactive); GI50 (UO-31): 2.98 µM (inactive); GI50 (NCI-H23): 2.15 µM (inactive); GI50 (ACHN): 1.72 µM (inactive); GI50 (HL-60): 2.22 µM (inactive); GI50 (CAKI-1): 3.65 µM (inactive); GI50 (SK-MEL-2): 5.78 µM (inactive); GI50 (KM12): 2.64 µM (inactive); GI50 (OVCAR-8): 2.38 µM (inactive); GI50 (SK-MEL-5): 1.81 µM (inactive); GI50 (NCI-H226): 3.76 µM (inactive); GI50 (OVCAR-3): 1.68 µM (inactive); GI50 (K562): 2.72 µM (inactive); GI50 (M14): 1.99 µM (inactive); GI50 (OVCAR-4): 3.41 µM (inactive); GI50 (SNB-19): 4.08 µM (inactive); GI50 (MDA-MB-435): 3.43 µM (inactive); GI50 (SW-620): 3.16 µM (inactive); GI50 (SK-OV-3): 4.52 µM (inactive); GI50 (OVCAR-5): 5.11 µM (inactive); GI50 (A498): 4.3 µM (inactive); GI50 (HCT-15): 0.811 µM; GI50 (HT-29): 0.929 µM (active); GI50 (RXF 393): 3.15 µM (inactive)
